Measurements as given in patent publication US8426408B2, “Pyrimidine inhibitors of kinases” (AbbVie Inc., priority 2009, dated 2013).

Key:
Type in all cases: biochemical
[1] = molecular target: KDR (Homo sapiens, UniProt P35968); assay: KDR HTRF in vitro kinase assay; set-up: purified enzyme (His6-KDR 789-1354, MW 63 kD); His6 (N); conditions: 1 mM ATP; read-out: KDR enzyme inhibition data (Ki)
In short: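 His6-KDR 789-1354 (7 ng/well) with 0.5 μM biotinylated peptide substrate and 1 mM ATP in HEPES pH 7.1, MgCl2/MnCl2, 60 min at room temperature. EDTA-quenched, detected by streptavidin-XL-665 plus Eu-kryptate anti-phosphotyrosine HTRF after 3 h; IC50 from 620/665 nm ratio.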

[2] = molecular target: T1, Aurora A (Homo sapiens, UniProt O14965); assay: Aurora A enzyme inhibition (time-resolved fluorescence, STK substrate-2); conditions: 1 mM ATP
T1 sequence (O14965 1-403): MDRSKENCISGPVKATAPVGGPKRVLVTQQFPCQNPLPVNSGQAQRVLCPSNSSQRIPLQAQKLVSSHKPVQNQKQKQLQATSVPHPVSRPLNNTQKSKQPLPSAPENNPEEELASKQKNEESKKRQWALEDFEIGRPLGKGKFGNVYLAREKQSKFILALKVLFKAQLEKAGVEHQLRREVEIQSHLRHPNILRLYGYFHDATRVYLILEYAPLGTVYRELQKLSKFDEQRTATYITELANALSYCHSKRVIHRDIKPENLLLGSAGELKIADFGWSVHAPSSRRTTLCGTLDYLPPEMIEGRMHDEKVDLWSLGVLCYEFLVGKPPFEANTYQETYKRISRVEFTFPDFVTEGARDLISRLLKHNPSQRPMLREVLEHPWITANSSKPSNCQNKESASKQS
In short: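 Active enzyme incubated 1 h with biotinylated STK substrate-2, 1 mM ATP and inhibitor in Hepes pH 7.4 with MgCl2, orthovanadate and Triton X-100. EDTA stop; phosphopeptide detected by Eu-cryptate anti-phospho-STK/SA-XL665 TR-FRET (665/615 nm ratio); IC50 by exponential fit.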

[3] = molecular target: T2, Aurora B (Homo sapiens, UniProt Q96GD4); assay: Aurora B enzyme inhibition (time-resolved fluorescence, histone H3 peptide); conditions: 1 mM ATP
T2 construct: Active Aurora B enzyme (recombinant residues 1-344)
In short: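 Recombinant Aurora B (residues 1-344) with GST-INCENP phosphorylated biotinylated histone H3 (1-21) peptide at 1 mM ATP in HEPES pH 7.4 with MgCl2, orthovanadate and Triton X-100 for 1 h. After EDTA stop, the phosphopeptide was detected by TR-FRET (Eu-cryptate anti-phospho-H3 / SA-APC, 665/615 nm ratio). IC50 from an exponential fit.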

Measured: Ki

KDR, sequence (P35968 789-1354): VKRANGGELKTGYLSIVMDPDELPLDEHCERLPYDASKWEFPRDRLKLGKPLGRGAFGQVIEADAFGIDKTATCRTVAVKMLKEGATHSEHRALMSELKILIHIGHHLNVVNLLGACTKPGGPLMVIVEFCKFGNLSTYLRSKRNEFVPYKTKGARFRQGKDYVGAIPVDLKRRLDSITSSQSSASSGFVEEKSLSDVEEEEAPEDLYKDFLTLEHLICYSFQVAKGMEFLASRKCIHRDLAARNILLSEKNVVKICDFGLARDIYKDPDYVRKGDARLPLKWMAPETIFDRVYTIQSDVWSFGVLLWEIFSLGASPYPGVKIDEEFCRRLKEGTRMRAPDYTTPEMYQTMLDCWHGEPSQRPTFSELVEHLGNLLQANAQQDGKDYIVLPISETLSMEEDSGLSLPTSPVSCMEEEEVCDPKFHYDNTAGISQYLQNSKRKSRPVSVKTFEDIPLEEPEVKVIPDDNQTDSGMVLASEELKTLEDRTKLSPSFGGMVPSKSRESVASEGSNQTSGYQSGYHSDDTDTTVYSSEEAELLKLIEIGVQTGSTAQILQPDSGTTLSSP
T2 sequence (Q96GD4 whole entry, the tested form may be a part): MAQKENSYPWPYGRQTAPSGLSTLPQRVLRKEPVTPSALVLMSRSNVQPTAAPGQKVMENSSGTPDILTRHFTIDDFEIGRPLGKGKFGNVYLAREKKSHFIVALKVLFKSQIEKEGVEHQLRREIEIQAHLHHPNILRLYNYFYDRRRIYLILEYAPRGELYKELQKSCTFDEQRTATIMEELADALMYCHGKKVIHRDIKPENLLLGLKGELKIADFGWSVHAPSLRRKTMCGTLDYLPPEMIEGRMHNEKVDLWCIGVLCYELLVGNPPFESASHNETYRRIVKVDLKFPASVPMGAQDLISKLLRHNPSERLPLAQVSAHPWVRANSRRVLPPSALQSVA
T2 sequence (Q9NQS7 826-918 partner limits assumed): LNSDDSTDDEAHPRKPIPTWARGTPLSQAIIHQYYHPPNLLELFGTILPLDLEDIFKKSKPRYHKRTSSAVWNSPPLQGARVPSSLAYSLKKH

C[C@@H](O)Cn1cc(Nc2ncc(C(F)(F)F)c(N[C@H]3[C@@H](C(N)=O)[C@@H]4C=C[C@H]3C4)n2)cn1 [Example 69, (1S,2S,3R,4R)-3-{[2-({1-[(2R)-2-hydroxypropyl]-1H-pyrazol-4-yl}amino)-5-(trifluoromethyl)pyrimidin-4-yl]amino}bicyclo[2.2.1]hept-5-ene-2-carboxamide]
< 0.1 µM: all assays above

NC(=O)[C@@H]1[C@H](Nc2nc(Nc3cnn([C@H]4CCNC4)c3)ncc2Cl)[C@H]2C=C[C@@H]1C2 [Example 72, (1S,2S,3R,4R)-3-{[5-chloro-2-({1-[(3S)-pyrrolidin-3-yl]-1H-pyrazol-4-yl}amino)pyrimidin-4-yl]amino}bicyclo[2.2.1]hept-5-ene-2-carboxamide]
< 0.1 µM: all assays above

NC(=O)[C@@H]1[C@H](Nc2nc(Nc3cnn([C@@H]4CCNC4)c3)ncc2Cl)[C@H]2C=C[C@@H]1C2 [Example 73, (1S,2S,3R,4R)-3-{[5-chloro-2-({1-[(3R)-pyrrolidin-3-yl]-1H-pyrazol-4-yl}amino)pyrimidin-4-yl]amino}bicyclo[2.2.1]hept-5-ene-2-carboxamide]
< 0.1 µM: all assays above

NC(=O)Cn1cc(Nc2ncc(Cl)c(N[C@H]3[C@@H](C(N)=O)[C@@H]4C=C[C@H]3C4)n2)cn1 [Example 74, (1S,2S,3R,4R)-3-[(2-{[1-(2-amino-2-oxoethyl)-1H-pyrazol-4-yl]amino}-5-chloropyrimidin-4-yl)amino]bicyclo[2.2.1]hept-5-ene-2-carboxamide]
< 0.1 µM: all assays above

CNC(=O)Cn1cc(Nc2ncc(Cl)c(N[C@H]3[C@@H](C(N)=O)[C@@H]4C=C[C@H]3C4)n2)cn1 [Example 75, (1S,2S,3R,4R)-3-{[5-chloro-2-({1-[2-(methylamino)-2-oxoethyl]-1H-pyrazol-4-yl}amino)pyrimidin-4-yl]amino}bicyclo[2.2.1]hept-5-ene-2-carboxamide]
< 0.1 µM: all assays above

NC(=O)Cn1cc(Nc2ncc(Br)c(N[C@H]3[C@@H](C(N)=O)[C@@H]4C=C[C@H]3C4)n2)cn1 [Example 76, (1S,2S,3R,4R)-3-[(2-{[1-(2-amino-2-oxoethyl)-1H-pyrazol-4-yl]amino}-5-bromopyrimidin-4-yl)amino]bicyclo[2.2.1]hept-5-ene-2-carboxamide]
< 0.1 µM: all assays above

CNC(=O)Cn1cc(Nc2ncc(Br)c(N[C@H]3[C@@H](C(N)=O)[C@@H]4C=C[C@H]3C4)n2)cn1 [Example 77, (1S,2S,3R,4R)-3-{[5-bromo-2-({1-[2-(methylamino)-2-oxoethyl]-1H-pyrazol-4-yl}amino)pyrimidin-4-yl]amino}bicyclo[2.2.1]hept-5-ene-2-carboxamide]
< 0.1 µM: all assays above

CC(C)OC(=O)Cn1cc(Nc2ncc(Cl)c(N[C@H]3[C@@H](C(N)=O)[C@@H]4C=C[C@H]3C4)n2)cn1 [Example 78, isopropyl{4-[(4-{[(1R,2R,3S,4S)-3-(aminocarbonyl)bicyclo[2.2.1]hept-5-ene-2-yl]amino}-5-chloropyrimidin-2-yl)amino]-1H-pyrazol-1-yl}acetate]
< 0.1 µM: all assays above

CCn1cc(Nc2ncc(Br)c(N[C@H]3[C@@H](C(N)=O)[C@@H]4C=C[C@H]3C4)n2)cn1 [Example 79, (1S,2S,3R,4R)-3-({5-bromo-2-[(1-ethyl-1H-pyrazol-4-yl)amino]pyrimidin-4-yl}amino)bicyclo[2.2.1]hept-5-ene-2-carboxamide]
< 0.1 µM: all assays above

CCn1cc(Nc2ncc(C(F)(F)F)c(N[C@@H]3[C@H]4CC[C@H](C4)[C@@H]3C(N)=O)n2)cn1 [Example 80, (1R,2S,3R,4S)-3-{[2-[(1-ethyl-1H-pyrazol-4-yl)amino]-5-(trifluoromethyl)pyrimidin-4-yl]amino}bicyclo[2.2.1]heptane-2-carboxamide]
< 0.1 µM: all assays above

NC(=O)[C@@H]1[C@H](Nc2nc(Nc3cnn(C4CNC4)c3)ncc2Cl)[C@H]2C=C[C@@H]1C2 [Example 81, (1S,2S,3R,4R)-3-({2-[(1-azetidin-3-yl-1H-pyrazol-4-yl)amino]-5-chloropyrimidin-4-yl}amino)bicyclo[2.2.1]hept-5-ene-2-carboxamide]
< 0.1 µM: all assays above

NC(=O)[C@@H]1[C@H](Nc2nc(Nc3cnn(C4CCNCC4)c3)ncc2Cl)[C@H]2C=C[C@@H]1C2 [Example 82, (1S,2S,3R,4R)-3-({5-chloro-2-[(1-piperidin-4-yl-1H-pyrazol-4-yl)amino]pyrimidin-4-yl}amino)bicyclo[2.2.1]hept-5-ene-2-carboxamide]
< 0.1 µM: all assays above

NC(=O)[C@@H]1[C@H](Nc2nc(Nc3cnn([C@H]4CCCNC4)c3)ncc2Cl)[C@H]2C=C[C@@H]1C2 [Example 83, (1S,2S,3R,4R)-3-{[5-chloro-2-({1-[(3S)-piperidin-3-yl]-1H-pyrazol-4-yl}amino)pyrimidin-4-yl]amino}bicyclo[2.2.1]hept-5-ene-2-carboxamide]
< 0.1 µM: all assays above

NC(=O)[C@@H]1[C@H](Nc2nc(Nc3cnn([C@@H]4CCCNC4)c3)ncc2Cl)[C@H]2C=C[C@@H]1C2 [Example 84, (1S,2S,3R,4R)-3-{[5-chloro-2-({1-[(3R)-piperidin-3-yl]-1H-pyrazol-4-yl}amino)pyrimidin-4-yl]amino}bicyclo[2.2.1]hept-5-ene-2-carboxamide]
< 0.1 µM: all assays above

CC(=O)NCC(=O)N1CCC(n2cc(Nc3ncc(Cl)c(N[C@H]4[C@@H](C(N)=O)[C@@H]5C=C[C@H]4C5)n3)cn2)CC1 [Example 85, (1S,2S,3R,4R)-3-{[2-({1-[1-(N-acetylglycyl)piperidin-4-yl]-1H-pyrazol-4-yl}amino)-5-chloropyrimidin-4-yl]amino}bicyclo[2.2.1]hept-5-ene-2-carboxamide]
< 0.1 µM: all assays above

(1S,2S,3R,4R)-3-[(5-chloro-2-{[1-(1-methylpiperidin-4-yl)-1H-pyrazol-4-yl]amino}pyrimidin-4-yl)amino]bicyclo[2.2.1]hept-5-ene-2-carboxamide and (1R,2R,3S,4S)-3-[(5-chloro-2-{[1-(1-methylpiperidin-4-yl)-1H-pyrazol-4-yl]amino}pyrimidin-4-yl)amino]bicyclo[2.2.1]hept-5-ene-2-carboxamide [Example 40]
< 0.1 µM: all assays above

(1S,2S,3R,4R)-3-[(5-chloro-2-{[1-(2-morpholin-4-ylethyl)-1H-pyrazol-4-yl]amino}pyrimidin-4-yl)amino]bicyclo[2.2.1]hept-5-ene-2-carboxamide and (1R,2R,3S,4S)-3-[(5-chloro-2-{[1-(2-morpholin-4-ylethyl)-1H-pyrazol-4-yl]amino}pyrimidin-4-yl)amino]bicyclo[2.2.1]hept-5-ene-2-carboxamide [Example 37]
< 0.1 µM: all assays above

(1S,2S,3R,4R)-3-{[5-chloro-2-({1-[2-(4-methylpiperazin-1-yl)ethyl]-1H-pyrazol-4-yl}amino)pyrimidin-4-yl]amino}bicyclo[2.2.1]hept-5-ene-2-carboxamide and (1R,2R,3S,4S)-3-{[5-chloro-2-({1-[2-(4-methylpiperazin-1-yl)ethyl]-1H-pyrazol-4-yl}amino)pyrimidin-4-yl]amino}bicyclo[2.2.1]hept-5-ene-2-carboxamide [Example 46]
< 0.1 µM: all assays above

(1S,2S,3R,4R)—N-cyclopropyl-3-{[2-[(1-methyl-1H-pyrazol-4-yl)amino]-5-(trifluoromethyl)pyrimidin-4-yl]amino}bicyclo[2.2.1]hept-5-ene-2-carboxamide and (1R,2R,3S,4S)—N-cyclopropyl-3-{[2-[(1-methyl-1H-pyrazol-4-yl)amino]-5-(trifluoromethyl)pyrimidin-4-yl]amino}bicyclo[2.2.1]hept-5-ene-2-carboxamide [Example 70]
< 0.1 µM: all assays above
